Like-named read-outs stand apart in the source and are kept apart here.
Legend:
Type in all cases: cell-based
hKv1.3 = hKv1.3 (Homo sapiens, UniProt P22001); experiment: cell-based; settings: Kv1.3 (IWQ) IC50 (nM, Avg)
[1] = tested on: IFN-g secretion from T cells in human whole blood
[2] = tested on: IL-2 secretion from T cells in human whole blood; settings: read-out: WB (IL-2) IC50 (nM, Avg)
[3] = read-out: WB (IFNg) IC50 (nM, Avg)

Chain of hKv1.3 (P22001 whole entry): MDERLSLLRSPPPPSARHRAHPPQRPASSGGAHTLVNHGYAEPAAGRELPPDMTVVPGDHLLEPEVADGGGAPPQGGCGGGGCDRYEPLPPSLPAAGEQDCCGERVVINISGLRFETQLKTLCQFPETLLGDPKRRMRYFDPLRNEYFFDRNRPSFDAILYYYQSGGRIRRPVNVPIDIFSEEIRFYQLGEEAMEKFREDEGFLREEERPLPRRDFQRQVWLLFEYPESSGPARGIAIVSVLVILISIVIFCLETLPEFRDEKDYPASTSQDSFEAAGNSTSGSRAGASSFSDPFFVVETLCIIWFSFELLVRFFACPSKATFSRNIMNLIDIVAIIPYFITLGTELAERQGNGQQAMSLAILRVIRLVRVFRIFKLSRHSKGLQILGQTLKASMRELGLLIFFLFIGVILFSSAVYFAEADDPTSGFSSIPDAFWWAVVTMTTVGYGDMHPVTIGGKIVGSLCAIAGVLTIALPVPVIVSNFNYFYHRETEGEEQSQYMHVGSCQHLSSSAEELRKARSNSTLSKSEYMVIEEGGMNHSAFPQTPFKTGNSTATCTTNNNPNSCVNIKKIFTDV

| Compound | IC50 (hKv1.3) | IC50 [1, 3] | IC50 [2] | IC50 ([1]; read-out: WB (IFNg) IC5- (nM, Avg)) |
| --- | --- | --- | --- | --- |
| CC[C@H](C)[C@@H]1NC(=O)[C@@H](NC(=O)[C@H](CO)NC(=O)[C@@H](N)CCCNC(=N)N)CSSC[C@@H](C(=O)O)NC(=O)[C@H]([C@@H](C)O)NC(=O)CNC(=O)[C@@H]2CSSC[C@@H]3NC(=O)[C@H](CCC(N)=O)NC(=O)[C@H](Cc4ccccc4)NC(=O)[C@H](C)NC(=O)[C@H]([C@@H](C)O)NC(=O)[C@H](CSSC[C@H](NC(=O)[C@H](Cc4ccccc4)NC(=O)[C@H](CO)NC(=O)[C@H](CC(C)C)NC(=O)[C@H](CCCNC(=N)N)NC(=O)[C@H](Cc4ccc(O)cc4)NC(=O)[C@H](CCCCN)NC(=O)[C@H](CCSC)NC(=O)[C@H](CO)NC(=O)[C@H](Cc4c[nH]cn4)NC(=O)[C@H](CCCCN)NC3=O)C(=O)N[C@@H](CCCNC(=N)N)C(=O)N[C@@H](CCCCN)C(=O)N[C@@H]([C@@H](C)O)C(=O)N2)NC(=O)[C@H](CCCNC(=N)N)NC(=O)[C@H](CO)NC(=O)[C@H](CCCCN)NC(=O)[C@H](C)NC(=O)[C@H]([C@@H](C)CC)NC(=O)[C@H]([C@@H](C)O)NC(=O)[C@H](CC(=O)O)NC1=O [[Ala8]ShK] | 0.078 nM | 0.061 nM | 0.039 nM |  |
| CC[C@H](C)[C@@H]1NC(=O)[C@@H](NC(=O)[C@H](CO)NC(=O)[C@@H](N)CCCNC(=N)N)CSSC[C@@H](C(=O)O)NC(=O)[C@H]([C@@H](C)O)NC(=O)CNC(=O)[C@@H]2CSSC[C@@H]3NC(=O)[C@H](CCC(N)=O)NC(=O)[C@H](Cc4ccccc4)NC(=O)[C@H](C)NC(=O)[C@H]([C@@H](C)O)NC(=O)[C@H](CSSC[C@H](NC(=O)[C@H](Cc4ccccc4)NC(=O)[C@H](CO)NC(=O)[C@H](Cc4cccc5ccccc45)NC(=O)[C@H](CCCNC(=N)N)NC(=O)[C@H](Cc4ccc(O)cc4)NC(=O)[C@H](CCCCN)NC(=O)[C@H](CCSC)NC(=O)[C@H](CO)NC(=O)[C@H](Cc4c[nH]cn4)NC(=O)[C@H](CCCCN)NC3=O)C(=O)N[C@@H](CCCNC(=N)N)C(=O)N[C@@H](CCCCN)C(=O)N[C@@H]([C@@H](C)O)C(=O)N2)NC(=O)[C@H](CCCNC(=N)N)NC(=O)[C@H](CO)NC(=O)[C@H](CCCCN)NC(=O)[C@@H]2CCCN2C(=O)[C@H]([C@@H](C)CC)NC(=O)[C@H]([C@@H](C)O)NC(=O)[C@H](CC(=O)O)NC1=O [[1-Nal25]ShK] | 0.106 nM | 0.084 nM | 0.061 nM |  |
| CCCC[C@@H]1NC(=O)[C@H](CO)NC(=O)[C@H](Cc2c[nH]cn2)NC(=O)[C@H](CCCCN)NC(=O)[C@@H]2CSSC[C@@H]3NC(=O)[C@H]([C@@H](C)O)NC(=O)[C@H](CCCNC(=N)N)NC(=O)[C@H](CCCCN)NC(=O)[C@H](CSSC[C@H](NC(=O)[C@H](CCCNC(=N)N)NC(=O)[C@H](CO)NC(=O)[C@H](CCCCN)NC(=O)[C@@H]4CCCN4C(=O)[C@H]([C@@H](C)CC)NC(=O)[C@H]([C@@H](C)O)NC(=O)[C@H](CC(=O)O)NC(=O)[C@H]([C@@H](C)CC)NC(=O)[C@@H](NC(=O)[C@H](CO)NC(=O)[C@@H](N)CCCNC(=N)N)CSSC[C@@H](C(N)=O)NC(=O)[C@H]([C@@H](C)O)NC(=O)CNC3=O)C(=O)N[C@@H]([C@@H](C)O)C(=O)N[C@@H](C)C(=O)N[C@@H](Cc3ccccc3)C(=O)N[C@@H](CCCCN)C(=O)N2)NC(=O)[C@H](Cc2ccccc2)NC(=O)[C@H](Cc2cccc3ccccc23)NC(=O)[C@H](CC(C)C)NC(=O)[C@H](CCCNC(=N)N)NC(=O)[C@H](Cc2ccc(O)cc2)NC(=O)[C@H](CCCCN)NC1=O [[Lys16,29; 1-Nal26;Arg30;Nle21]ShK-amide] | 2.33 nM | 8.22 nM | 9.44 nM |  |
| CC[C@H](C)[C@@H]1NC(=O)[C@H]([C@@H](C)O)NC(=O)[C@H](CC(=O)O)NC(=O)[C@H](CCC(=O)O)NC(=O)[C@@H](NC(=O)[C@H](CO)NC(=O)[C@@H](N)CCCNC(=N)N)CSSC[C@@H](C(N)=O)NC(=O)[C@H]([C@@H](C)O)NC(=O)CNC(=O)[C@@H]2CSSC[C@@H]3NC(=O)[C@H](CCCCN)NC(=O)[C@H](Cc4ccccc4)NC(=O)[C@H](C)NC(=O)[C@H]([C@@H](C)O)NC(=O)[C@H](CSSC[C@H](NC(=O)[C@H](Cc4ccccc4)NC(=O)[C@H](Cc4cccc5ccccc45)NC(=O)[C@H](CC(C)C)NC(=O)[C@H](CCCNC(=N)N)NC(=O)[C@H](Cc4ccc(O)cc4)NC(=O)[C@H](CCCCN)NC(=O)[C@H](CCSC)NC(=O)[C@H](CO)NC(=O)[C@H](Cc4c[nH]cn4)NC(=O)[C@H](CCCCN)NC3=O)C(=O)N[C@@H](CCCCN)C(=O)N[C@@H](CCCNC(=N)N)C(=O)N[C@@H]([C@@H](C)O)C(=O)N2)NC(=O)[C@H](CCCNC(=N)N)NC(=O)[C@H](CO)NC(=O)[C@H](CCCCN)NC(=O)[C@@H]2CCCN2C1=O [[Glu4; Lys16,29;1-Na126;Arg30]ShK-amide] | 0.384 nM | 0.598 nM | 0.712 nM |  |
| CCCC[C@@H]1NC(=O)[C@H](CO)NC(=O)[C@H](Cc2c[nH]cn2)NC(=O)[C@H](CCCCN)NC(=O)[C@@H]2CSSC[C@@H]3NC(=O)[C@H]([C@@H](C)O)NC(=O)[C@H](CCC(=O)O)NC(=O)[C@H](CCCNC(=N)N)NC(=O)[C@H](CSSC[C@H](NC(=O)[C@H](CCCNC(=N)N)NC(=O)[C@H](CO)NC(=O)[C@H](CCCCN)NC(=O)[C@@H]4CCCN4C(=O)[C@H]([C@@H](C)CC)NC(=O)[C@H]([C@@H](C)O)NC(=O)[C@H](CC(=O)O)NC(=O)[C@H]([C@@H](C)CC)NC(=O)[C@@H](NC(=O)[C@H](CO)NC(=O)[C@@H](N)CCCNC(=N)N)CSSC[C@@H](C(N)=O)NC(=O)[C@H]([C@@H](C)O)NC(=O)CNC3=O)C(=O)N[C@@H]([C@@H](C)O)C(=O)N[C@@H](C)C(=O)N[C@@H](Cc3ccccc3)C(=O)N[C@@H](CCCCN)C(=O)N2)NC(=O)[C@H](Cc2ccccc2)NC(=O)[C@H](CO)NC(=O)[C@H](CC(C)C)NC(=O)[C@H](CCCNC(=N)N)NC(=O)[C@H](Cc2ccc(O)cc2)NC(=O)[C@H](CCCCN)NC1=O [[Lys16, Nle21,Glu30]ShK-amide] | 1.88 nM | 5.03 nM | 3.18 nM |  |
| CCCC[C@@H]1NC(=O)[C@H](CO)NC(=O)[C@H](Cc2c[nH]cn2)NC(=O)[C@H](CCCCN)NC(=O)[C@@H]2CSSC[C@@H]3NC(=O)[C@H]([C@@H](C)O)NC(=O)[C@H](CCCCN)NC(=O)[C@H](CCCNC(=N)N)NC(=O)[C@H](CSSC[C@H](NC(=O)[C@H](CCCNC(=N)N)NC(=O)[C@H](CO)NC(=O)[C@H](CCCCN)NC(=O)[C@@H]4CCCN4C(=O)[C@H]([C@@H](C)CC)NC(=O)[C@H]([C@@H](C)O)NC(=O)[C@H](CC(=O)O)NC(=O)[C@H](CCC(=O)O)NC(=O)[C@@H](NC(=O)[C@H](CO)NC(=O)[C@@H](N)CCCNC(=N)N)CSSC[C@@H](C(N)=O)NC(=O)[C@H]([C@@H](C)O)NC(=O)CNC3=O)C(=O)N[C@@H]([C@@H](C)O)C(=O)N[C@@H](C)C(=O)N[C@@H](Cc3ccccc3)C(=O)N[C@@H](CCCCN)C(=O)N2)NC(=O)[C@H](Cc2ccccc2)NC(=O)[C@H](CO)NC(=O)[C@H](CC(C)C)NC(=O)[C@H](CCCNC(=N)N)NC(=O)[C@H](Cc2ccc(O)cc2)NC(=O)[C@H](CCCCN)NC1=O [[Glu4, Lys16,Nle21]ShK-amide] | 0.149 nM | 0.965 nM | 0.57 nM |  |
| CC[C@H](C)[C@@H]1NC(=O)[C@@H](NC(=O)[C@H](CO)NC(=O)[C@@H](N)CCCNC(=N)N)CSSC[C@@H](C(=O)O)NC(=O)[C@H]([C@@H](C)O)NC(=O)CNC(=O)[C@@H]2CSSC[C@@H]3NC(=O)[C@H](CCC(N)=O)NC(=O)[C@H](Cc4ccccc4)NC(=O)[C@H](C)NC(=O)[C@H]([C@@H](C)O)NC(=O)[C@H](CSSC[C@H](NC(=O)[C@H](Cc4ccccc4)NC(=O)[C@H](CO)NC(=O)[C@H](CCCNC(=N)N)NC(=O)[C@H](CCCNC(=N)N)NC(=O)[C@H](Cc4ccc(O)cc4)NC(=O)[C@H](CCCCN)NC(=O)[C@H](CCSC)NC(=O)[C@H](CO)NC(=O)[C@H](Cc4c[nH]cn4)NC(=O)[C@H](CCCCN)NC3=O)C(=O)N[C@@H](CCCNC(=N)N)C(=O)N[C@@H](CCCCN)C(=O)N[C@@H]([C@@H](C)O)C(=O)N2)NC(=O)[C@H](CCCNC(=N)N)NC(=O)[C@H](CO)NC(=O)[C@H](CCCCN)NC(=O)[C@@H]2CCCN2C(=O)[C@H]([C@@H](C)CC)NC(=O)[C@H]([C@@H](C)O)NC(=O)[C@H](CC(=O)O)NC1=O [[Arg25]ShK] | 0.107 nM | 0.2 nM | 0.095 nM |  |
| CC[C@H](C)[C@@H]1NC(=O)[C@@H](NC(=O)[C@H](CO)NC(=O)[C@@H](N)CCCNC(=N)N)CSSC[C@@H](C(=O)O)NC(=O)[C@H]([C@@H](C)O)NC(=O)CNC(=O)[C@@H]2CSSC[C@@H]3NC(=O)[C@H](CCC(N)=O)NC(=O)[C@H](Cc4ccccc4)NC(=O)[C@H](C)NC(=O)[C@H]([C@@H](C)O)NC(=O)[C@H](CSSC[C@H](NC(=O)[C@H](Cc4ccccc4)NC(=O)[C@H](CO)NC(=O)[C@H](CC(C)C)NC(=O)[C@H](CCCNC(=N)N)NC(=O)[C@H](Cc4ccc(O)cc4)NC(=O)[C@H](CCCCN)NC(=O)[C@H](CCSC)NC(=O)[C@H](CO)NC(=O)[C@H](Cc4c[nH]cn4)NC(=O)[C@H](CCCCN)NC3=O)C(=O)N[C@@H](CCC(=O)O)C(=O)N[C@@H](CCCCN)C(=O)N[C@@H]([C@@H](C)O)C(=O)N2)NC(=O)[C@H](CCCNC(=N)N)NC(=O)[C@H](CO)NC(=O)[C@H](CCCCN)NC(=O)[C@@H]2CCCN2C(=O)[C@H]([C@@H](C)CC)NC(=O)[C@H]([C@@H](C)O)NC(=O)[C@H](CC(=O)O)NC1=O [[Glu29]ShK] | 0.142 nM |  | 0.73 nM | 1.96 nM |
